# Measurements published in ChEMBL document CHEMBL4831527, “Structure-Based Design and Discovery of Pyridyl-Bearing Fused Bicyclic HIV-1 Inhibitors: Synthesis, Biological Characterization, and Molecular Modeling Studies” (J Med Chem, 2021).
# The source made the active and inactive calls. No cut-off for these calls is given here.
# Key:
# [1] = Selectivity index, ratio of CC50 for mock-infected human MT4 cells to EC50 for HIV1 3B infected in human MT4 cells; assay type: toxicity, cell-based; settings: MT4 cells (mock-infected and HIV1 3B infected), read-out: Ratio CC50/EC50
# [2] = tested on: Human immunodeficiency virus 1; assay: Antiviral activity against HIV1 RES056 infected in human MT4 cells assessed as protection against virus-induced cytopathic effect incubated for 5 days by MTT assay; assay type: functional, organism-based; settings: Human immunodeficiency virus 1, RES056, MT4, 120 h
# [3] = tested on: Human immunodeficiency virus 1; assay: Antiviral activity against HIV1 3B infected in human MT4 cells assessed as protection against virus-induced cytopathic effect incubated for 5 days by MTT assay; assay type: functional, organism-based; settings: Human immunodeficiency virus 1, 3B, MT4, 120 h
# [4] = Cytotoxicity against mock-infected human MT4 cells assessed as reduction in cell viability measured after 5 days by MTT assay; assay type: cell-based; settings: time 5 day
# [5] = tested on: Human immunodeficiency virus 2; assay: Antiviral activity against HIV2 ROD infected in human MT4 cells assessed as protection against virus-induced cytopathogenicity after 5 days by MTT assay; assay type: functional, organism-based; settings: time 5.0 day
# [6] = biological target: Human immunodeficiency virus type 1 reverse transcriptase (Human immunodeficiency virus 1, UniProt Q72547); assay: Inhibition of wild type HIV1 p66/p51 reverse transcriptase using poly(rA) as template, oligo(dT)16 as primer and RNA/DNA as substrate measured after 40 mins by PICOGreen-dye based spectrofluorimetry analysis
# [7] = Selectivity index, ratio of CC50 for mock-infected human MT4 cells to EC50 for HIV1 RES056 infected in human MT4 cells; assay type: toxicity, cell-based; settings: MT4 cells (mock-infected and HIV1 RES056 infected), read-out: Ratio CC50/EC50
# [8] = tested on: Human immunodeficiency virus 1; assay: Antiviral activity against HIV1 harboring reverse transcriptase K103N mutant infected in human MT4 cells assessed as protection against virus-induced cytopathic effect incubated for 5 days by MTT assay; assay type: functional, organism-based; settings: Human immunodeficiency virus 1, MT4, 120 h
# [9] = tested on: Human immunodeficiency virus 1; assay: Antiviral activity against HIV1 harboring reverse transcriptase Y181C mutant infected in human MT4 cells assessed as protection against virus-induced cytopathic effect incubated for 5 days by MTT assay; assay type: functional, organism-based; settings: Human immunodeficiency virus 1, MT4, 120 h
# [10] = tested on: Human immunodeficiency virus 1; assay: Antiviral activity against HIV1 harboring reverse transcriptase E138K mutant infected in human MT4 cells assessed as protection against virus-induced cytopathic effect incubated for 5 days by MTT assay; assay type: functional, organism-based; settings: Human immunodeficiency virus 1, MT4, 120 h
# [11] = tested on: Human immunodeficiency virus 1; assay: Antiviral activity against HIV1 harboring reverse transcriptase Y188L mutant infected in human MT4 cells assessed as protection against virus-induced cytopathic effect incubated for 5 days by MTT assay; assay type: functional, organism-based; settings: Human immunodeficiency virus 1, MT4, 120 h
# [12] = tested on: Human immunodeficiency virus 1; assay: Antiviral activity against HIV1 harboring reverse transcriptase F227L/V106A double mutant infected in human MT4 cells assessed as protection against virus-induced cytopathic effect incubated for 5 days by MTT assay; assay type: functional, organism-based; settings: Human immunodeficiency virus 1, MT4, 120 h
# [13] = tested on: Human immunodeficiency virus 1; assay: Antiviral activity against HIV1 harboring reverse transcriptase L100I mutant infected in human MT4 cells assessed as protection against virus-induced cytopathic effect incubated for 5 days by MTT assay; assay type: functional, organism-based; settings: Human immunodeficiency virus 1, MT4, 120 h
# [14] = tested on: Human immunodeficiency virus 1; assay: Potency index, ratio of EFV EC50 to test compound EC50 for antiviral activity against HIV1 RES056 infected in human MT4 cells; assay type: functional
# [15] = Half life in human liver microsomes at 1 uM in presence of NADPH by LC-MS/MS analysis; assay type: ADME, Microsome
# [16] = in vitro; settings: human, liver microsomes
Structure (SMILES),selectivity ratio [1],EC50 [2],EC50 [3],CC50 at 120 h [4],Activity [5],IC50 [6],selectivity ratio [7],EC50 [8],EC50 [9],EC50 [10],EC50 [11],EC50 [12],EC50 [13],Ratio EC50 [14],half-life at 1 µM [15],"CLint scaled at 1 h, 1 µM [16]"
Cc1cc(C#N)cc(C)c1Oc1nc(Nc2ccc(OC(F)(F)F)cc2)nc2c1CCCC2,> 3410,> 275000 nM,80.6 nM,> 275000 nM,inactive,61000 nM,,,,,,,,,,
Cc1cc(C=O)cc(C)c1Oc1nc(Nc2ccc(C#N)nc2)nc2c1CCCC2,590,9210 nM,35.4 nM,20900 nM,inactive,43 nM,2,,,,,,,,,
Cc1cc(C#N)cc(C)c1Oc1nc(Nc2ccc(C#N)cc2)nc(N)c1Br [ETRAVIRINE],,473 nM,4.8 nM,> 4600 nM,,,,3.9 nM,213 nM,15.2 nM,27.2 nM,25.7 nM,7.4 nM,,,
Cc1cc(C#N)cc(C)c1Oc1nc(Nc2ccc(C#N)nc2)nn2cccc12,9830,1220 nM,7 nM,69100 nM,inactive,14 nM,57,11.9 nM,171 nM,> 69100 nM,> 69100 nM,> 69100 nM,204 nM,,,
Cc1cc(/C=C/C(N)=O)cc(C)c1Oc1nc(Nc2ccc(C#N)cc2)nn2cccc12,1590,5850 nM,36.3 nM,57600 nM,inactive,53 nM,10,,,,,,,,,
Cc1cc(/C=C/C#N)cc(C)c1Oc1nc(Nc2ccc(C#N)nc2)nc2c1CCCC2,1160,58.8 nM,7.6 nM,8800 nM,inactive,147 nM,150,7.7 nM,34.8 nM,> 8830 nM,> 8830 nM,> 8830 nM,12.8 nM,2.4,26.5 min,47 mL/min/kg
Cc1cc(C#N)cc(C)c1Oc1nc(Nc2ccc(C#N)cc2)nc2c1ccn2COCC[Si](C)(C)C,4,> 2960 nM,820 nM,3000 nM,inactive,171 nM,< 1,,,,,,,,,
Cc1cc(C=O)cc(C)c1Oc1nc(Nc2ccc(C#N)cc2)nc2c1CCCC2,169,1200 nM,35.1 nM,5900 nM,inactive,55 nM,5,63.7 nM,748 nM,146 nM,663 nM,2240 nM,492 nM,,,
C[C@]12CC[C@H]3[C@@H](CCC4=CC(=O)CC[C@@]43C)[C@@H]1CC[C@@H]2O [TESTOSTERONE],,,,,,,,,,,,,,,,126 mL/min/kg
Cn1c(Cn2ccc(C(F)(F)F)c(Oc3cc(Cl)cc(C#N)c3)c2=O)n[nH]c1=O [DORAVIRINE],> 21900,15 nM,13 nM,> 294000 nM,,,> 20100,,,,,,,,,
Cc1cc(C#N)cc(C)c1Oc1nc(Nc2ccc(S(C)(=O)=O)cc2)nc2c1CCCC2,> 4920,> 279000 nM,56.7 nM,> 279000 nM,inactive,69 nM,,,,,,,,,,
Cc1cc(C#N)cc(C)c1Oc1nc(Nc2ccc(C#N)nc2)nc2c1ccn2COCC[Si](C)(C)C,463,> 117000 nM,253 nM,117000 nM,inactive,7400 nM,< 1,,,,,,,,,
Cc1cc(C#N)cc(C)c1Oc1nc(Nc2ccc(CC#N)cc2)nc2c1CCCC2,385,1020 nM,11.7 nM,4500 nM,inactive,53 nM,4,9.9 nM,283 nM,> 4520 nM,> 4520 nM,> 4520 nM,68.5 nM,,,
Cc1cc(C#N)cc(C)c1Oc1nc(Nc2ccc(C#N)cc2)nc2c1CCCC2,298,,10.6 nM,,inactive,52 nM,,7.1 nM,52.7 nM,19 nM,24.5 nM,58.4 nM,12.8 nM,,,
O=C(O)Cc1ccccc1Nc1c(Cl)cccc1Cl [DICLOFENAC],,,,,,,,,,,,,,,,310 mL/min/kg
Cc1cc(C#N)cc(C)c1Oc1nc(Nc2ccc(C#N)nc2)nc2c1CCCC2,228,> 12600 nM,1070 nM,244000 nM,inactive,50 nM,< 19,,,,,,,,,
Cc1cc(C#N)cc(C)c1Oc1nc(Nc2ccc(C#N)cc2)nc2c1ccn2CO,137,128 nM,6.1 nM,830 nM,inactive,40 nM,6,3.7 nM,31.2 nM,> 707 nM,> 707 nM,> 707 nM,20.1 nM,,,
Cc1cc(/C=C/C#N)cc(C)c1Nc1ccnc(Nc2ccc(C#N)cc2)n1 [RILPIVIRINE],,,,,,,,,,,,,,,12.8 min,97.6 mL/min/kg
Cc1cc(C=O)cc(C)c1Oc1nc(Nc2ccc(C#N)cn2)nc2c1CCCC2,1250,> 35300 nM,234 nM,293000 nM,inactive,58 nM,58,,,,,,,,,
Cc1cc(/C=C/C#N)cc(C)c1Oc1nc(Nc2ccc(CC#N)cc2)nc2c1CCCC2,2730,433 nM,17.7 nM,48300 nM,inactive,49 nM,112,12.9 nM,140 nM,> 25800 nM,> 25800 nM,> 25800 nM,49 nM,,,
Cc1cc(C)c(Oc2nc(Nc3ccc(C#N)cc3)nc3c2CCCC3)c(C)c1,177,805 nM,38.6 nM,6800 nM,inactive,241 nM,8,57 nM,232 nM,171 nM,191 nM,524 nM,96.9 nM,,,
O=C1Nc2ccc(Cl)cc2[C@@](C#CC2CC2)(C(F)(F)F)O1 [EFAVIRENZ],> 1390,144 nM,4.5 nM,> 6300 nM,,,> 44,,,6 nM,244 nM,274 nM,51.6 nM,,,
Cc1cc(C#N)cc(C)c1Oc1nc(Nc2ccc(C#N)nc2)nc2c1ccn2CO,≥ 2950,> 138000 nM,46.9 nM,≥ 138000 nM,inactive,47 nM,,,,,,,,,,
Cc1cc(C#N)cc(C)c1Oc1nc(Nc2ccc(C#N)cn2)nc2c1ccn2COCC[Si](C)(C)C,< 1,> 93900 nM,> 93900 nM,93900 nM,inactive,31000 nM,< 1,,,,,,,,,
